This note sets out measurements from ChEMBL document CHEMBL3045554, “Synthesis and antimicrobial screening of N-(1-methyl-1H-pyrazole-4-carbonyl)-thiourea derivatives” (2012).

Experiment [1] relates to Staphylococcus aureus. Description: Antimicrobial activity against Staphylococcus aureus by microdilution method. Format: functional.
In experiment [2] the test system is Pseudomonas aeruginosa. In words: Antimicrobial activity against Pseudomonas aeruginosa 5541 by microdilution method. The class given is functional.
Experiment [3] concerns Enterococcus faecalis. In words: Antimicrobial activity against Enterococcus faecalis 13773 by microdilution method. Format: functional.
Experiment [4] has as its system Bacillus subtilis. Description: Antimicrobial activity against Bacillus subtilis 10.10.2006 by microdilution method. Format: functional.
The test system of experiment [5] is Klebsiella pneumoniae. In words: Antimicrobial activity against Klebsiella pneumoniae 126/2007 by microdilution method. The class given is functional.
In experiment [6] the test system is Acinetobacter baumannii. In words: Antimicrobial activity against Acinetobacter baumannii 15896 by microdilution method. Format: functional.
The subject of experiment [7] is Escherichia coli. Description: Antimicrobial activity against Escherichia coli 637/2007 by microdilution method. Format: functional.
Experiment [8] concerns Escherichia coli. Description: Effect on lipase production in Escherichia coli 637/2007 after 7 days. The class given is functional, organism-based.
In experiment [9] the test system is Klebsiella pneumoniae. Description: Effect on amylase production in Klebsiella pneumoniae 126/2007 after 24 hr by starch hydrolysis assay. The class given is functional, organism-based.
Experiment [10] concerns Staphylococcus aureus. In words: Effect on esculethol production in Staphylococcus aureus after 24 hr by esculin hydrolysis test. The class given is functional, organism-based.
The subject of experiment [11] is Klebsiella pneumoniae. Description: Effect on esculethol production in Klebsiella pneumoniae 126/2007 after 24 hr by esculin hydrolysis test. Format: functional, organism-based.
Experiment [12] deals with Escherichia coli. Description: Inhibition of caseinase production in Escherichia coli 637/2007 after 24 hr by casein hydrolysis assay. Format: functional, organism-based.
Experiment [13] relates to Pseudomonas aeruginosa. Description: Effect on lipase production in Pseudomonas aeruginosa 5541 after 7 days. Format: functional, organism-based.
Experiment [14] relates to Pseudomonas aeruginosa. In words: Effect on DNase production in Pseudomonas aeruginosa 5541 after 24 hr. The class given is functional, organism-based.
For experiment [15], the system named is Bacillus subtilis. Description: Inhibition of caseinase production in Bacillus subtilis 10.10.2006 after 24 hr by casein hydrolysis assay. Format: functional, organism-based.
For experiment [16], the system named is Enterococcus faecalis. Description: Effect on DNase production in Enterococcus faecalis 13773 after 24 hr. Format: functional, organism-based.
The subject of experiment [17] is Pseudomonas aeruginosa. In words: Effect on amylase production in Pseudomonas aeruginosa 5541 after 24 hr by starch hydrolysis assay. The class given is functional, organism-based.
Experiment [18] deals with Pseudomonas aeruginosa. Description: Effect on esculethol production in Pseudomonas aeruginosa 5541 after 24 hr by esculin hydrolysis test. The class given is functional, organism-based.
Experiment [19] relates to Bacillus subtilis. Description: Effect on lipase production in Bacillus subtilis 10.10.2006 after 7 days. Format: functional, organism-based.
In experiment [20] the test system is Acinetobacter baumannii. Description: Effect on gelatinase production in Acinetobacter baumannii 15896 after 24 hr by gelatin hydrolysis test. Format: functional, organism-based.
In experiment [21] the test system is Enterococcus faecalis. In words: Effect on esculethol production in Enterococcus faecalis 13773 after 24 hr by esculin hydrolysis test. Format: functional, organism-based.
For experiment [22], the system named is Acinetobacter baumannii. Description: Effect on esculethol production in Acinetobacter baumannii 15896 after 24 hr by esculin hydrolysis test. Format: functional, organism-based.
The test system of experiment [23] is Escherichia coli. Description: Effect on amylase production in Escherichia coli 637/2007 after 24 hr by starch hydrolysis assay. Format: functional, organism-based.
Experiment [24] has as its system Klebsiella pneumoniae. In words: Effect on gelatinase production in Klebsiella pneumoniae 126/2007 after 24 hr by gelatin hydrolysis test. Format: functional, organism-based.
Experiment [25] deals with Pseudomonas aeruginosa. Description: Inhibition of lecithinase production in Pseudomonas aeruginosa 5541 after 7 days. The class given is functional, organism-based.
The test system of experiment [26] is Escherichia coli. In words: Effect on gelatinase production in Escherichia coli 637/2007 after 24 hr by gelatin hydrolysis test. The class given is functional, organism-based.
The test system of experiment [27] is Enterococcus faecalis. In words: Effect on amylase production in Enterococcus faecalis 13773 after 24 hr by starch hydrolysis assay. The class given is functional, organism-based.
The subject of experiment [28] is Escherichia coli. Description: Effect on DNase production in Escherichia coli 637/2007 after 24 hr. The class given is functional, organism-based.
For experiment [29], the system named is Acinetobacter baumannii. Description: Inhibition of caseinase production in Acinetobacter baumannii 15896 after 24 hr by casein hydrolysis assay. The class given is functional, organism-based.
The subject of experiment [30] is Acinetobacter baumannii. In words: Effect on DNase production in Acinetobacter baumannii 15896 after 24 hr. The class given is functional, organism-based.
For experiment [31], the system named is Acinetobacter baumannii. In words: Effect on amylase production in Acinetobacter baumannii 15896 after 24 hr by starch hydrolysis assay. The class given is functional, organism-based.
Experiment [32] has as its system Acinetobacter baumannii. Description: Effect on lipase production in Acinetobacter baumannii 15896 after 7 days. The class given is functional, organism-based.
The subject of experiment [33] is Bacillus subtilis. Description: Effect on amylase production in Bacillus subtilis 10.10.2006 after 24 hr by starch hydrolysis assay. Format: functional, organism-based.
Experiment [34] deals with Enterococcus faecalis. Description: Effect on lipase production in Enterococcus faecalis 13773 after 7 days. Format: functional, organism-based.
For experiment [35], the system named is Staphylococcus aureus. In words: Effect on gelatinase production in Staphylococcus aureus after 24 hr by gelatin hydrolysis test. The class given is functional, organism-based.
In experiment [36] the test system is Pseudomonas aeruginosa. In words: Inhibition of caseinase production in Pseudomonas aeruginosa 5541 after 24 hr by casein hydrolysis assay. Format: functional, organism-based.
For experiment [37], the system named is Klebsiella pneumoniae. Description: Effect on DNase production in Klebsiella pneumoniae 126/2007 after 24 hr. The class given is functional, organism-based.
The subject of experiment [38] is Bacillus subtilis. Description: Inhibition of lecithinase production in Bacillus subtilis 10.10.2006 after 7 days. The class given is functional, organism-based.
The subject of experiment [39] is Escherichia coli. In words: Inhibition of lecithinase production in Escherichia coli 637/2007 after 7 days. Format: functional, organism-based.
The test system of experiment [40] is Klebsiella pneumoniae. In words: Inhibition of caseinase production in Klebsiella pneumoniae 126/2007 after 24 hr by casein hydrolysis assay. Format: functional, organism-based.
In experiment [41] the test system is Staphylococcus aureus. In words: Inhibition of caseinase production in Staphylococcus aureus after 24 hr by casein hydrolysis assay. Format: functional, organism-based.
Experiment [42] relates to Staphylococcus aureus. Description: Effect on lipase production in Staphylococcus aureus after 7 days. Format: functional, organism-based.
Experiment [43] deals with Staphylococcus aureus. In words: Effect on DNase production in Staphylococcus aureus after 24 hr. Format: functional, organism-based.
Experiment [44] has as its system Enterococcus faecalis. In words: Inhibition of lecithinase production in Enterococcus faecalis 13773 after 7 days. The class given is functional, organism-based.
For experiment [45], the system named is Escherichia coli. Description: Effect on esculethol production in Escherichia coli 637/2007 after 24 hr by esculin hydrolysis test. Format: functional, organism-based.
In experiment [46] the test system is Pseudomonas aeruginosa. In words: Effect on gelatinase production in Pseudomonas aeruginosa 5541 after 24 hr by gelatin hydrolysis test. Format: functional, organism-based.
Experiment [47] concerns Enterococcus faecalis. Description: Inhibition of caseinase production in Enterococcus faecalis 13773 after 24 hr by casein hydrolysis assay. Format: functional, organism-based.
Experiment [48] deals with Klebsiella pneumoniae. Description: Effect on lipase production in Klebsiella pneumoniae 126/2007 after 7 days. Format: functional, organism-based.
The subject of experiment [49] is Bacillus subtilis. In words: Effect on gelatinase production in Bacillus subtilis 10.10.2006 after 24 hr by gelatin hydrolysis test. The class given is functional, organism-based.
For experiment [50], the system named is Bacillus subtilis. In words: Effect on DNase production in Bacillus subtilis 10.10.2006 after 24 hr. Format: functional, organism-based.
Experiment [51] concerns Acinetobacter baumannii. Description: Inhibition of lecithinase production in Acinetobacter baumannii 15896 after 7 days. Format: functional, organism-based.
Experiment [52] relates to Staphylococcus aureus. Description: Inhibition of lecithinase production in Staphylococcus aureus after 7 days. The class given is functional, organism-based.
Experiment [53] has as its system Bacillus subtilis. Description: Effect on esculethol production in Bacillus subtilis 10.10.2006 after 24 hr by esculin hydrolysis test. The class given is functional, organism-based.
The test system of experiment [54] is Enterococcus faecalis. Description: Effect on gelatinase production in Enterococcus faecalis 13773 after 24 hr by gelatin hydrolysis test. Format: functional, organism-based.
For experiment [55], the system named is Klebsiella pneumoniae. Description: Inhibition of lecithinase production in Klebsiella pneumoniae 126/2007 after 7 days. Format: functional, organism-based.
Experiment [56] relates to Staphylococcus aureus. In words: Effect on amylase production in Staphylococcus aureus after 24 hr by starch hydrolysis assay. The class given is functional, organism-based.

≈ marks a conversion by molar mass, not a printed value. Calls of active or inactive are those of the source. No cut-off for these calls is given here.

Regarding `CCC(C)c1ccccc1NC(=S)NC(=O)c1cnn(C)c1` (stereo unspecified), the MIC in the experiment on Staphylococcus aureus [1], with Pseudomonas aeruginosa [2], against Enterococcus faecalis [3], in the experiment on Bacillus subtilis [4], in the experiment with Klebsiella pneumoniae [5] and against Acinetobacter baumannii [6] was over 1000 µg/mL each time. The MIC in the experiment on Escherichia coli [7] is over 1000 µg/mL.

Take `CC(C)c1ccccc1NC(=S)NC(=O)c1cnn(C)c1`: the MIC in the experiment on Staphylococcus aureus [1] was over 1000 µg/mL; in the experiment on Pseudomonas aeruginosa [2] it was over 1000 µg/mL; with Enterococcus faecalis [3] it was over 1000 µg/mL; with Bacillus subtilis [4], over 1000 µg/mL; against Klebsiella pneumoniae [5] it was 1000 µg/mL (≈ 3.31 mM); in the experiment on Acinetobacter baumannii [6], over 1000 µg/mL. The molecule further displayed an MIC in the experiment with Escherichia coli [7] of over 1000 µg/mL.

As to `CCCc1ccc(NC(=S)NC(=O)c2cnn(C)c2)cc1`, the MIC against Staphylococcus aureus [1], with Pseudomonas aeruginosa [2], against Enterococcus faecalis [3], against Bacillus subtilis [4], in the experiment on Klebsiella pneumoniae [5] and in the experiment with Acinetobacter baumannii [6] was over 1000 µg/mL throughout. In the experiment on Escherichia coli [7], this molecule showed an MIC of over 1000 µg/mL.

With `CCC(C)c1ccc(NC(=S)NC(=O)c2cnn(C)c2)cc1` (stereo unspecified), the MIC with Staphylococcus aureus [1], against Pseudomonas aeruginosa [2], with Enterococcus faecalis [3], in the experiment with Bacillus subtilis [4], against Klebsiella pneumoniae [5] and against Acinetobacter baumannii [6] was over 1000 µg/mL throughout. The molecule also yielded an MIC against Escherichia coli [7] of over 1000 µg/mL.

Consider `CCc1ccc(NC(=S)NC(=O)c2cnn(C)c2)cc1`, for which the MIC against Staphylococcus aureus [1], in the experiment with Pseudomonas aeruginosa [2], in the experiment with Enterococcus faecalis [3], with Bacillus subtilis [4], in the experiment on Klebsiella pneumoniae [5] and with Acinetobacter baumannii [6] was over 1000 µg/mL in each case. Further, the minimal inhibitory concentration (MIC) with Escherichia coli [7] is over 1000 µg/mL.

For `CCc1ccccc1NC(=S)NC(=O)c1cnn(C)c1`, the result in the experiment with Escherichia coli [8], with Klebsiella pneumoniae [9], in the experiment on Staphylococcus aureus [10], in the experiment with Klebsiella pneumoniae [11], in the experiment on Pseudomonas aeruginosa [13] and with Pseudomonas aeruginosa [14] was inactive. The result in the experiment on Enterococcus faecalis [16], in the experiment with Pseudomonas aeruginosa [17], with Pseudomonas aeruginosa [18], in the experiment on Bacillus subtilis [19], with Acinetobacter baumannii [20] and with Enterococcus faecalis [21] was inactive. Also, the result with Acinetobacter baumannii [22], in the experiment with Escherichia coli [23], in the experiment on Klebsiella pneumoniae [24], in the experiment with Escherichia coli [26], in the experiment on Enterococcus faecalis [27] and with Escherichia coli [28] was inactive. Besides, the result in the experiment on Acinetobacter baumannii [30], in the experiment on Acinetobacter baumannii [31], with Acinetobacter baumannii [32], with Bacillus subtilis [33], with Enterococcus faecalis [34] and with Staphylococcus aureus [35] was inactive. Also, the outcome in the experiment with Klebsiella pneumoniae [37], in the experiment on Staphylococcus aureus [42], in the experiment with Staphylococcus aureus [43], with Escherichia coli [45], in the experiment on Pseudomonas aeruginosa [46] and with Klebsiella pneumoniae [48] was inactive. The outcome with Bacillus subtilis [49], in the experiment on Bacillus subtilis [50], with Bacillus subtilis [53], with Enterococcus faecalis [54] and in the experiment on Staphylococcus aureus [56] was inactive. Also, the MIC is 250 µg/mL (≈ 0.867 mM) in the experiment with Staphylococcus aureus [1]; 500 µg/mL (≈ 1.73 mM) in the experiment with Pseudomonas aeruginosa [2]; over 1000 µg/mL with Enterococcus faecalis [3]; 1000 µg/mL (≈ 3.47 mM) in the experiment with Bacillus subtilis [4]; 1000 µg/mL (≈ 3.47 mM) in the experiment with Klebsiella pneumoniae [5]; 250 µg/mL (≈ 0.867 mM) with Acinetobacter baumannii [6]. This molecule gave an MIC against Escherichia coli [7] of over 1000 µg/mL. The inhibition result with Escherichia coli [12], in the experiment on Bacillus subtilis [15], with Pseudomonas aeruginosa [25], with Acinetobacter baumannii [29], in the experiment with Pseudomonas aeruginosa [36] and in the experiment with Bacillus subtilis [38] was “inactive” in each case. The inhibition result with Escherichia coli [39], with Klebsiella pneumoniae [40], with Staphylococcus aureus [41], in the experiment with Enterococcus faecalis [44], with Enterococcus faecalis [47] and in the experiment on Acinetobacter baumannii [51] was “inactive” throughout. In addition, the inhibition result in the experiment on Staphylococcus aureus [52] is “inactive”. Further, the inhibition result in the experiment on Klebsiella pneumoniae [55] was “Active”.
